Each block holds one molecule with its values, some of them ahead of it. The source made the active and inactive calls.
Assays:
[1] = (§1) Counterscreen for antagonists of the orexin 1 receptor (OX1R; HCRTR1): Fluorescence-based cell-based high throughput dose response assay to identify antagonists of the parental CHO cell line. [Related pubchem assays (depositor defined):AID434989, AID435008, AID463079, AID485270, AID492963, AID492964, AID492965, AID493232, AID504699, AID504701]; format: functional
[2] = biological target: T1, RNA-binding protein pos-1 (Caenorhabditis elegans, UniProt G5EF15); assay: inhibitors of POS-1/mex-3 RNA binding, dose response, biochemical, fluorescence polarization (AID 1964);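 also: purified POS-1 fused to maltose binding protein made in E. coli; potency of compounds blocking POS-1 binding to fluorescent RNA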
T1 sequence (G5EF15 whole entry): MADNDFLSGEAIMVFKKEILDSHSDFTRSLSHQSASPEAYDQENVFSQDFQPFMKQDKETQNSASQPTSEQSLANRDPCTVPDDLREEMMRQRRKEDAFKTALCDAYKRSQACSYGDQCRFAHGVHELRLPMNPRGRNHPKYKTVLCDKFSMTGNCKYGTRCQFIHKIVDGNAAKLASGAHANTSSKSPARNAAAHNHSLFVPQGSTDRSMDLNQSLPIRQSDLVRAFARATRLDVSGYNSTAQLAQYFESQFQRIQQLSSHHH

[3] = biological target: T2, Polyadenylate-binding protein 1 (Homo sapiens, UniProt P11940); assay: PABP1 MLLE–PAM2 binding inhibitor potency, dose response, biochemical, fluorescence polarization, FITC-PAM2 peptide (AID 602259); format: functional; settings: read-out: IC50_Mean
CHO-K1 = assay: as §1, with “Homogeneous time resolved fluorescence (HTRF)-based” for “Fluorescence-based”, “cell-based” for “cell-based high throughput”, “CHO-K1” for “CHO”; format: functional; settings: Cricetulus griseus;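 also: potency for inhibition of ATP-stimulated IP1 production as antagonists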
Orexin receptor type 2 [4] = biological target: T3, Orexin receptor type 2 (Homo sapiens, UniProt O43614); assay: Counterscreen assay for antagonists of the orexin 1 receptor (OX1R; HCRTR1): Homogeneous Time Resolved Fluorescence (HTRF)-based cell-based dose response assay for antagonists of the orexin 2 receptor (OX2R; HCRTR2), run by assay provider.; format: functional
[5] = biological target: T2, Polyadenylate-binding protein 1; assay: PABP1 MLLE–PAM2 interaction inhibitors, dose response, miRNA deadenylation inhibitor project, biochemical, fluorescence polarization, Cy5-PAM2 peptide, secondary (AID 602260); format: functional; settings: read-out: IC50_Mean
[6] = biological target: T4, Orexin/Hypocretin receptor type 1 (Homo sapiens, UniProt O43613); assay: (§2) Fluorescence-based cell-based high throughput dose response assay for antagonists of the orexin 1 receptor (OX1R; HCRTR1). [Related pubchem assays (depositor defined):AID434989, AID435008, AID463079, AID485270, AID492963, AID492964, AID492965, AID493232, AID504717, AID504718]; format: functional
[7] = biological target: T4, Orexin/Hypocretin receptor type 1; assay: as §2, with “Homogeneous Time Resolved Fluorescence (HTRF)-based” for “Fluorescence-based”; format: functional
[8] = biological target: T5, Zinc finger protein mex-5 (Caenorhabditis elegans, UniProt Q9XUB2); assay: MEX-5/TCR-2 RNA interaction inhibitors, dose response, biochemical, C. elegans, fluorescence polarization (AID 1960)
T5 sequence (Q9XUB2 whole entry): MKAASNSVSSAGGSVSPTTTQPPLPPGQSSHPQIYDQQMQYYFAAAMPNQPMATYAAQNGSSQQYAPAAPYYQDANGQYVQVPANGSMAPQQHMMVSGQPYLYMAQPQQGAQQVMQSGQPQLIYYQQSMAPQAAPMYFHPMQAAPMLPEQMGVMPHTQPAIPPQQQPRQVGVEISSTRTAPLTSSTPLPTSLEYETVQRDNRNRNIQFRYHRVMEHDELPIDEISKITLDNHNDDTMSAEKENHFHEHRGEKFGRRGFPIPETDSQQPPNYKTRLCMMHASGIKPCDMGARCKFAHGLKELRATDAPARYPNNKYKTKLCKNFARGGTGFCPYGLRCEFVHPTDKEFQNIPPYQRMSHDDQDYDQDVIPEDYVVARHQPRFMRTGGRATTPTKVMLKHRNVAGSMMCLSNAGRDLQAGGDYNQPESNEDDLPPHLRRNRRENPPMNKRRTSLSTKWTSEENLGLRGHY

Orexin receptor type 2 [9] = biological target: T3, Orexin receptor type 2; assay: Counterscreen assay for antagonists of the orexin 1 receptor (OX1R; HCRTR1): Fluorescence-based cell-based dose response assay for antagonists of the orexin 2 receptor (OX2R; HCRTR2), run by assay provider.; format: functional
[10] = biological target: Sphingosine 1-phosphate receptor 2 (Homo sapiens, UniProt O95136); assay: Late-stage fluorescence-based dose-response cell-based counterscreen assay to identify agonists of the Sphingosine 1-Phosphate Receptor 3 (S1P3): Sphingosine 1-Phosphate Receptor 2 (S1P2) agonist assay.; format: functional
[11] = biological target: T6, Sphingosine 1-phosphate receptor 4 (Homo sapiens, UniProt O95977); assay: Late-stage fluorescence-based dose-response cell-based counterscreen assay to identify agonists of the Sphingosine 1-Phosphate Receptor 3 (S1P3): Sphingosine 1-Phosphate Receptor 4 (S1P4) agonist assay.; format: functional
T6 sequence (O95977 whole entry): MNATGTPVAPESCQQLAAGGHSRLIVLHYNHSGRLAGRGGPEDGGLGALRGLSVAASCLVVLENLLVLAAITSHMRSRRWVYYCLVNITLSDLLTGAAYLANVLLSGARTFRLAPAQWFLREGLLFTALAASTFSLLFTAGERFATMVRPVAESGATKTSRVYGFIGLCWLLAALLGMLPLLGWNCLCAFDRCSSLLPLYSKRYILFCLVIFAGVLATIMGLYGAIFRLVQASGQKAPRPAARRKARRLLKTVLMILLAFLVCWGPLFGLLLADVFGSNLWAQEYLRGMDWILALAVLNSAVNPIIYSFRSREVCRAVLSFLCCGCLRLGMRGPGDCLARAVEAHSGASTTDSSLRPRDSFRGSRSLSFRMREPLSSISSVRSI

Insulin-degrading enzyme [12] = biological target: T7, Insulin-degrading enzyme (Homo sapiens, UniProt P14735); assay: activators of recombinant IDE enzyme, dose response, counter-screen for IDE activator project, biochemical, fluorescence polarization (AID 588681)
Insulin-degrading enzyme [13] = biological target: T7, Insulin-degrading enzyme; assay: activators of endogenous IDE in HEK cells, dose response, cell-based, fluorescence polarization (AID 588439); format: functional
HEK293 [14] = assay: HEK cell cytotoxicity by LDH release, dose response, cytotoxicity control for IDE activator project, fluorescence, HEK cells (AID 588440); format: functional, cell-based; settings: Homo sapiens;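 also: cytotoxicity by LDH release measuring loss of membrane integrity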
HEK293 [15] = assay: optical interference in Abeta FP readout, dose response, artefact control for IDE activator project, biochemical, fluorescence polarization (AID 588442); format: functional, cell-based; settings: Homo sapiens
[16] = biological target: T8, Sentrin-specific protease 8 (Homo sapiens, UniProt Q96LD8); assay: SENP8 protease inhibitors, SAR follow-up, biochemical, luminescence (AID 504501); format: functional
T8 sequence (Q96LD8 whole entry): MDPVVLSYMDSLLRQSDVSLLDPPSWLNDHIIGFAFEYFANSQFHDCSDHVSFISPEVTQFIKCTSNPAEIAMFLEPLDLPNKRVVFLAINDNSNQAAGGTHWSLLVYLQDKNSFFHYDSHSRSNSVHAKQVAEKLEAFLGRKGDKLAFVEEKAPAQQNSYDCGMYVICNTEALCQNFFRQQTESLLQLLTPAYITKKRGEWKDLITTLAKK

[17] = biological target: T9, Sentrin-specific protease 7 (Homo sapiens, UniProt Q9BQF6); assay: SENP7 protease inhibitors, SAR follow-up, biochemical, luminescence (AID 504497); format: functional
T9 sequence (Q9BQF6 whole entry): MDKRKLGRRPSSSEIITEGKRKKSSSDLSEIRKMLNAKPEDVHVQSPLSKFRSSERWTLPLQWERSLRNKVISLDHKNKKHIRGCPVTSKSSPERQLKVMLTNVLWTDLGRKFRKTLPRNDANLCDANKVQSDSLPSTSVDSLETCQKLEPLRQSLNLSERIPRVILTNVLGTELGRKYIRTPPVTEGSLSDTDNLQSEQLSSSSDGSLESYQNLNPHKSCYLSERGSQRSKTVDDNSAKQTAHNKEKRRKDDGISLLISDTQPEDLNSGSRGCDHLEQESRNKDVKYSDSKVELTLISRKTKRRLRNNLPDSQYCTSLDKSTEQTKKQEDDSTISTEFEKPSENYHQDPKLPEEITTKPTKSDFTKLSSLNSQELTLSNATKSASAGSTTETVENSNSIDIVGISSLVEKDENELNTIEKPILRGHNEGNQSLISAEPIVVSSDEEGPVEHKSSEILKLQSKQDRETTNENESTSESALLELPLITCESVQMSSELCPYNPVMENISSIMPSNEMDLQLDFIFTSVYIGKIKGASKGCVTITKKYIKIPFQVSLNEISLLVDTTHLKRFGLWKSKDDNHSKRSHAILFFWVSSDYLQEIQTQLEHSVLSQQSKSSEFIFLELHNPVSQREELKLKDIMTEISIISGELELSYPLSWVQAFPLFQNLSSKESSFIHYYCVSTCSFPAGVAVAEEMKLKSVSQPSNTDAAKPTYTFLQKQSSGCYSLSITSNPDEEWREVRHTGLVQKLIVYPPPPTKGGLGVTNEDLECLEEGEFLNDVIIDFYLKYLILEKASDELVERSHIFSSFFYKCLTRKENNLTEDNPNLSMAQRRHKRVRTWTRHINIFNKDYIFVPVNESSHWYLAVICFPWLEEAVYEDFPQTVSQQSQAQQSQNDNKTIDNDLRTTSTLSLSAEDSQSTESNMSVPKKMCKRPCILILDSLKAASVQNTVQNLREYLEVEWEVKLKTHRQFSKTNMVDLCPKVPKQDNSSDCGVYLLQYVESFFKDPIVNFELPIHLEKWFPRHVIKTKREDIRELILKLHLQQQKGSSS

Caspase-3 = biological target: T10, Caspase-3 (Homo sapiens, UniProt P42574); assay: SAR Analysis of small molecule inhibitors of Sentrin-specific proteases (SENPs) using a Caspase-3 Selectivity assay. [Related pubchem assays (depositor defined):AID2540, AID2599, AID434973, AID489001]; format: functional
T10 sequence (P42574 whole entry): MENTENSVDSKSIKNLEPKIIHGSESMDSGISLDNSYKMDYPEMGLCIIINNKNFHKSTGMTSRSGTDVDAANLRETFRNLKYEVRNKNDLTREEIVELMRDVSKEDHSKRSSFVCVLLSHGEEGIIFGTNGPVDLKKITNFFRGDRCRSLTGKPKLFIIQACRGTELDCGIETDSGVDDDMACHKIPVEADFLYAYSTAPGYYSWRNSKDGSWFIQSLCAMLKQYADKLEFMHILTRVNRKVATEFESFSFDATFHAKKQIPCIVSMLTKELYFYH

[18] = biological target: T11, Sentrin-specific protease 6 (Homo sapiens, UniProt Q9GZR1); assay: SAR Analysis of small molecule inhibitors of Sentrin-specific protease 6 (SENP6) using a Luminescent assay. [Related pubchem assays (depositor defined):AID2582, AID2599]; format: functional
T11 sequence (Q9GZR1 whole entry): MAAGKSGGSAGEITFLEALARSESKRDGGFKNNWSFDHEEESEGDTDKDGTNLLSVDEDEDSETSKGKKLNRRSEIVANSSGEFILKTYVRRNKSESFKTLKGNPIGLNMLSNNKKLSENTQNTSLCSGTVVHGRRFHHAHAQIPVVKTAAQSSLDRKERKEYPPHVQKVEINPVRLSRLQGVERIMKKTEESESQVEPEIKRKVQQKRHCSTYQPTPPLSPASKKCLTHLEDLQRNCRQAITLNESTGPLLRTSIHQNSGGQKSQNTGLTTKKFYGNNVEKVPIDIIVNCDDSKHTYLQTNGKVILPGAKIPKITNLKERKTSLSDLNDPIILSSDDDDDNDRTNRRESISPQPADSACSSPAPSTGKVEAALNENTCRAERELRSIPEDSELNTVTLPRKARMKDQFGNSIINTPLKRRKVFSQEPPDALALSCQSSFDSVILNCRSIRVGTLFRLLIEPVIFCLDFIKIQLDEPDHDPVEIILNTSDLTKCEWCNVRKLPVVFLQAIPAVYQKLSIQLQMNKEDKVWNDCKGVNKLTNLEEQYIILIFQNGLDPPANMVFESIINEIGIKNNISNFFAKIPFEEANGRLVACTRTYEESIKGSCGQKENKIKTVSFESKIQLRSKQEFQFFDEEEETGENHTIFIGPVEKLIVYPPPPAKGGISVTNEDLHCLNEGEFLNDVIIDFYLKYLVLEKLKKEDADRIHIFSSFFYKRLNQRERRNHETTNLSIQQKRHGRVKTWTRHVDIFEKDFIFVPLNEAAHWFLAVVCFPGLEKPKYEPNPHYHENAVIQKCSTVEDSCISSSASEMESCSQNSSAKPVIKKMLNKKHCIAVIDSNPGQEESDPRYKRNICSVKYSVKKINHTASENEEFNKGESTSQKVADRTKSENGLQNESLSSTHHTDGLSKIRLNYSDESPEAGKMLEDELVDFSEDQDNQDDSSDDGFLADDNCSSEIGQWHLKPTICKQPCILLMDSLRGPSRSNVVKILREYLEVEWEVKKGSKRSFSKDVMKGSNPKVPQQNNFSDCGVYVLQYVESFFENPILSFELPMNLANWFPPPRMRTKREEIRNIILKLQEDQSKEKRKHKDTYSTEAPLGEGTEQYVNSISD

[19] = biological target: ALK tyrosine kinase receptor (Homo sapiens, UniProt Q9UM73); format: functional;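 also: ALK tested as one member of a kinase panel screen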
[20] = biological target: Cell division cycle 7-related protein kinase (Homo sapiens, UniProt O00311); format: functional;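 also: value obtained from a kinome-wide kinase panel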
Cell division cycle 7-related protein kinase, sequence (O00311 whole entry): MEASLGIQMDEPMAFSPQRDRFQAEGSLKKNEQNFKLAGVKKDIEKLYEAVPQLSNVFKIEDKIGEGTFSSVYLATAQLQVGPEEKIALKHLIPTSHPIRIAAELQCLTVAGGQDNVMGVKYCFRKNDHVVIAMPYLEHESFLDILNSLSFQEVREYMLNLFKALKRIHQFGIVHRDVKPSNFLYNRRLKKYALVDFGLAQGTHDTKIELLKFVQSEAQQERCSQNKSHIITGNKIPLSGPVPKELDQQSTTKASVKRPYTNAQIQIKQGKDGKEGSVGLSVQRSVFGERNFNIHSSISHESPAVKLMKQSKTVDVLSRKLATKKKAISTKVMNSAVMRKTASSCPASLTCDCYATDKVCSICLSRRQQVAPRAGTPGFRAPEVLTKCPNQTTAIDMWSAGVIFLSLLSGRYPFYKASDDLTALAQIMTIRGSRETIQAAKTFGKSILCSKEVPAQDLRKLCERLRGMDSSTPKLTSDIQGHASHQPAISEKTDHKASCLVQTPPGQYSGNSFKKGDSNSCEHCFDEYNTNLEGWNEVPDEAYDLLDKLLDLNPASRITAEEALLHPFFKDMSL

T7 sequence (P14735 whole entry): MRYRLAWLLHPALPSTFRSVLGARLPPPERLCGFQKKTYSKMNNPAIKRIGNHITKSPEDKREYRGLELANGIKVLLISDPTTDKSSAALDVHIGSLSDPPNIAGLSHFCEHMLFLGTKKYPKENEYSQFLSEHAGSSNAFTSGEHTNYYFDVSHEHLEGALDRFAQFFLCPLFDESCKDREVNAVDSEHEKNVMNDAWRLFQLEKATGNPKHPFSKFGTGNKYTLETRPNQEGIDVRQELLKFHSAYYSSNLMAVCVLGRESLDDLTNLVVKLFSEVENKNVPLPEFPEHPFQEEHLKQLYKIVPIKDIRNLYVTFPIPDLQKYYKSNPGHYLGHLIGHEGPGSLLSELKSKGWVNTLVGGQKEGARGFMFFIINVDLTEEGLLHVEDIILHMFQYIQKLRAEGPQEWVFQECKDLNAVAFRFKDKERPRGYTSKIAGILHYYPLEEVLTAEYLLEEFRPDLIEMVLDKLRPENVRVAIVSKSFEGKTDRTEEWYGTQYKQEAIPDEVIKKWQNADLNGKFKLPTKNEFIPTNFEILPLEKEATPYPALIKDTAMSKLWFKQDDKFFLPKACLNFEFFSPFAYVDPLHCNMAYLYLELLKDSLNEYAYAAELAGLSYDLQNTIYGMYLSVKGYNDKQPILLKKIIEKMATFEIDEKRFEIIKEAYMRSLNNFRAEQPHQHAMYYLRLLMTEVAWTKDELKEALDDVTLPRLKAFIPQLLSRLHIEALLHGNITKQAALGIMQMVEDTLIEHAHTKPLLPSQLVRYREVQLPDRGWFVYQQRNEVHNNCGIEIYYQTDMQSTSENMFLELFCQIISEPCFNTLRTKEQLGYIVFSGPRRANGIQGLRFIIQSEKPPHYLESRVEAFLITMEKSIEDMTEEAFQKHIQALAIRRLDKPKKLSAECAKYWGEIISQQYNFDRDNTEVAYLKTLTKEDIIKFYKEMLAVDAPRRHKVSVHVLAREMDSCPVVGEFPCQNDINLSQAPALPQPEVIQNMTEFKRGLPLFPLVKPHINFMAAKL
T4 sequence (O43613 whole entry): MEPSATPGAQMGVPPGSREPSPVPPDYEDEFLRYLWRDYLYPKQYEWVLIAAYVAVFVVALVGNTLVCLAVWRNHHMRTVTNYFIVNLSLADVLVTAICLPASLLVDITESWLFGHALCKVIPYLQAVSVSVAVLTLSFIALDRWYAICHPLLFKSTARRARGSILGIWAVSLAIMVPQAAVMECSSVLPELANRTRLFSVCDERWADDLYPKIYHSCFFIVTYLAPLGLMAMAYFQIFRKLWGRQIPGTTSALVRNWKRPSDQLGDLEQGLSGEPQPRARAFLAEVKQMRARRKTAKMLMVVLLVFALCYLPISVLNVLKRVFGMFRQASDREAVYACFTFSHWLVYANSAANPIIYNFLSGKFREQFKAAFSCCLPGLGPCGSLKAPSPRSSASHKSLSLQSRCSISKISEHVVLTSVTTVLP
T3 sequence (O43614 whole entry): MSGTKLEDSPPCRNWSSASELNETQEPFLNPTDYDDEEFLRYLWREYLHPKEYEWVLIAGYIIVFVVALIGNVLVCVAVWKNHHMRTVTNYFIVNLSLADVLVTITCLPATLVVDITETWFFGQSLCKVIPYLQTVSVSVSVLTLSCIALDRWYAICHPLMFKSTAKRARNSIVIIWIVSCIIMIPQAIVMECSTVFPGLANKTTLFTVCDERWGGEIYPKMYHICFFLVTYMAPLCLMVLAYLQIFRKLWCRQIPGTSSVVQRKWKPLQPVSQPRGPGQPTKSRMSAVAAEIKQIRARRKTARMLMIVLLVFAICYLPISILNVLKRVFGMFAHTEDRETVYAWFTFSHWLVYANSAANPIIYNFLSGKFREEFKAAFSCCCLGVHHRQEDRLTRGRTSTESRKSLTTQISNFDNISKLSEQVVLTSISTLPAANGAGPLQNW
T2 sequence (P11940 whole entry): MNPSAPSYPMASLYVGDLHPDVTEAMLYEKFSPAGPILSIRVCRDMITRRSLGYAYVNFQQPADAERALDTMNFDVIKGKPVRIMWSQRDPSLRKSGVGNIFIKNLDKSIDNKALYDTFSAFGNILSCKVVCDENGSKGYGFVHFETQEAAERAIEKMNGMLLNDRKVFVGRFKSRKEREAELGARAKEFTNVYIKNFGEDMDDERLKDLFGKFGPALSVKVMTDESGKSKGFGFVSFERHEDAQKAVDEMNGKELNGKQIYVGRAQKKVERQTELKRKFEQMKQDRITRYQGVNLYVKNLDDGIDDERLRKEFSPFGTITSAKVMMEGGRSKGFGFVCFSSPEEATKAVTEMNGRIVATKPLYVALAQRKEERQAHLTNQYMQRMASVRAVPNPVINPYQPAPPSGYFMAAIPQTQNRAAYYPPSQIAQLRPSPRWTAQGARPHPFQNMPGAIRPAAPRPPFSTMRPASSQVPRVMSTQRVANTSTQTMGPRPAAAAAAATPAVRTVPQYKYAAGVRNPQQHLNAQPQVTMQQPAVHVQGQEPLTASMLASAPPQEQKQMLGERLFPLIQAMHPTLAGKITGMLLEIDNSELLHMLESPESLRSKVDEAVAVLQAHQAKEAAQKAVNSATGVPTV
ALK tyrosine kinase receptor, sequence (Q9UM73 whole entry): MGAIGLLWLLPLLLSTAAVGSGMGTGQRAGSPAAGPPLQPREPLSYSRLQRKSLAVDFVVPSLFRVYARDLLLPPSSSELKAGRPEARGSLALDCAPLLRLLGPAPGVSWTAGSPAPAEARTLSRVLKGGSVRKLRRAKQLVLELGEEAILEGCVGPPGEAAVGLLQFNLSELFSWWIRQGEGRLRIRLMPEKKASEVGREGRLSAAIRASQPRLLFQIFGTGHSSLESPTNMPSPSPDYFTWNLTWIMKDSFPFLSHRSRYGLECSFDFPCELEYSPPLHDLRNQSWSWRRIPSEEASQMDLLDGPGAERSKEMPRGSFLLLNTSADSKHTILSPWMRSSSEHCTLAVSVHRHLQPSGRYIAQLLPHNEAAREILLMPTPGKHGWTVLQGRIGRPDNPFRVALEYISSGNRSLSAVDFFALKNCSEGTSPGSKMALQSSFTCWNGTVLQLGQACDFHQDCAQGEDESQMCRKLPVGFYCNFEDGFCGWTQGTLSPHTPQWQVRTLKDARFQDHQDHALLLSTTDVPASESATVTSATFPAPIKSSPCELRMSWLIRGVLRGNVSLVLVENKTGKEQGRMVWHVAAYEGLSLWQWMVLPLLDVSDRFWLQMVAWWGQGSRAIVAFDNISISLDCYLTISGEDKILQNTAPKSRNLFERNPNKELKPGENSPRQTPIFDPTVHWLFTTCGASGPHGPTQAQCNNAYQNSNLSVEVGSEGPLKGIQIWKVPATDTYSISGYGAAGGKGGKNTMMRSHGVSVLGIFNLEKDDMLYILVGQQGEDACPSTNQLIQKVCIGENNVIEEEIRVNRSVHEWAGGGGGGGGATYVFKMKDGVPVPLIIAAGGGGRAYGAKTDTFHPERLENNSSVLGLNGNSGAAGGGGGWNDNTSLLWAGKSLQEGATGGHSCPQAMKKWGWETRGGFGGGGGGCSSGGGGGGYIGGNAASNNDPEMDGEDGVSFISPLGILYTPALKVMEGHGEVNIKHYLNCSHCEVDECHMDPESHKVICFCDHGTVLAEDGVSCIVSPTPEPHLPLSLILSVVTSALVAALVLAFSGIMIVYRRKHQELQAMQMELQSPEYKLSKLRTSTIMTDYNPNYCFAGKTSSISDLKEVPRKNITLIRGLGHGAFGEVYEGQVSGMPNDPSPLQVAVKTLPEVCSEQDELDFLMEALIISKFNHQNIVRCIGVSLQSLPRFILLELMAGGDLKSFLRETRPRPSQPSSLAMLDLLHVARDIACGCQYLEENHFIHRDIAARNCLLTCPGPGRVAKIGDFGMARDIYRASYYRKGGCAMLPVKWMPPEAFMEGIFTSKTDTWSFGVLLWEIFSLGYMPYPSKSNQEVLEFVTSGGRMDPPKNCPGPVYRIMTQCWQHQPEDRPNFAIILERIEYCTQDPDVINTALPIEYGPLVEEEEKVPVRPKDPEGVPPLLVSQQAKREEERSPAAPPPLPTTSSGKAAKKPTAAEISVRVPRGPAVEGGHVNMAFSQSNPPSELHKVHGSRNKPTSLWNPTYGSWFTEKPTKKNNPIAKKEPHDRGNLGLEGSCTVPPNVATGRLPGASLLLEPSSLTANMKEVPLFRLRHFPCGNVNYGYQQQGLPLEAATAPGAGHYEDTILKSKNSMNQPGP
Sphingosine 1-phosphate receptor 2, sequence (O95136 whole entry): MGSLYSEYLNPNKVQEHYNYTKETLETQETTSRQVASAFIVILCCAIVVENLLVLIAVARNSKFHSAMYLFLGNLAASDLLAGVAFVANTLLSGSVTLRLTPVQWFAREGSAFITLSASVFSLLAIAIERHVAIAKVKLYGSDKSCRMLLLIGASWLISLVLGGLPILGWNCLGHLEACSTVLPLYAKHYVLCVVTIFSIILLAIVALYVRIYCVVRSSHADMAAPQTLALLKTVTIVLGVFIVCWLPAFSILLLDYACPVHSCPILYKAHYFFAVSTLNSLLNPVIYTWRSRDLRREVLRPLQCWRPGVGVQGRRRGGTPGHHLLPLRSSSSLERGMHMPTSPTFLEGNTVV

Compound: COc1ccc(/C=c2\sc3nc(-c4ccccc4OC)nn3c2=O)c(OC)c1
IC50 [1]: > 49.8 µM (inactive)
EC50 [2]: 21.5 µM (active)
IC50 [3]: 48.3 µM (inactive)
IC50 (CHO-K1): > 66.2 µM (inactive)
IC50 (Orexin receptor type 2 [4]): > 50 µM (inactive)
IC50 [5]: > 66 µM (inactive)
IC50 [6]: 526 nM (active)
IC50 [7]: 723 nM (active)
EC50 [8]: 31.4 µM (active)
IC50 (Orexin receptor type 2 [9]): 33.5 µM (inactive)

EC50 [10]: > 50 µM (inactive)
EC50 [11]: > 50 µM (inactive)
Compound: Cc1cc(C(=O)N(C2CCCCC2)C2CCCCC2)no1

Compound: CC(C)CCn1nnnc1CN1CCN(c2ccccc2)CC1
EC50 (Insulin-degrading enzyme [12]): 29.8 µM (inactive)
EC50 (Insulin-degrading enzyme [13]): 32.3 µM (inactive)
IC50 (HEK293 [14]): > 89.1 µM (inactive)
EC50 (HEK293 [15]): > 55.9 µM (inactive)

IC50 [17]: > 99 µM (inactive)
IC50 (Caspase-3): > 99 µM (inactive)
IC50 [18]: > 99 µM (inactive)
Compound: CC1CC(C)CN(S(=O)(=O)c2ccc(C(=O)Nc3nc4ccc(C(C)C)cc4s3)cc2)C1 (configuration not stated)
IC50 [16]: > 99 µM (inactive)

Ki [19]: 316 nM (active)
Ki [20]: > 3.98 µM (inactive)
Compound: CS(=O)(=O)c1ccccc1Nc1nc(Nc2ccccc2)ncc1Cl

Source: ChEMBL document CHEMBL1201862, “PubChem BioAssay data set” (2004)
